Source: patent publication US4614746A, “5-fluorobenzonitrile derivatives for increasing the lean meat to fat ratio and/or enhancing the growth rate of warm-blooded animals” (American Cyanamid Company, priority 1985, dated 1986)

How the values were obtained:
[1] = in words; cited from earlier work
[2] = biological target: T1, beta-1 adrenergic receptor (Meleagris gallopavo, UniProt P07700); assay: Beta-1 adrenergic activity, (H3) dihydroalprenolol radioligand binding to erythrocyte membranes; design: species or system turkey and rat; details: (H3) DHA, room temperature (23° C.), one hour; read-out: β1 K-50 (concentration required to displace 50% radioactive ligand from binding sites of beta adrenergic receptors)
T1 construct: Beta-1 adrenergic receptor membranes are isolated from turkey and rat erythrocytes; from tissue; host or cells: erythrocyte membranes from freshly drawn turkey blood (rat blood also given)
T1 sequence (P07700 whole entry): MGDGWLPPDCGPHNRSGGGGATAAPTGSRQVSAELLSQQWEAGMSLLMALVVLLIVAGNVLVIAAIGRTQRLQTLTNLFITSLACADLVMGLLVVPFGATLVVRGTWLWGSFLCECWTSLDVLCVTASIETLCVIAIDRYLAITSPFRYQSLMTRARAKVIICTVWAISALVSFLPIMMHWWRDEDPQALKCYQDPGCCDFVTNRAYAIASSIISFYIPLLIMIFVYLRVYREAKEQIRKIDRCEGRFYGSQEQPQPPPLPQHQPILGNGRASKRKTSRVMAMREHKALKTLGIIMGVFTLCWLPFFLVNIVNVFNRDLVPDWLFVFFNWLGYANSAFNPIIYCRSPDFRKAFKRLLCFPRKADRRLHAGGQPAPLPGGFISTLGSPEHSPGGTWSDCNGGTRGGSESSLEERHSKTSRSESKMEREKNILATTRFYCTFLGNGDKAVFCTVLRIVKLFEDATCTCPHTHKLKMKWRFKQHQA
Method: Beta-1 adrenergic activity of experimental compounds is identified by radioactive ligand-binding studies by using beta adrenergic receptor membranes and adrenergic antagonist (H3) dihydroalprenolol (DHA). Binding of (H3) DHA to membrane fractions is assayed by filtration on glass fiber filters. Specific binding is defined as total radioactivity bound minus nonspecific bound radioactivity, i.e., binding in the presence of 100 μM nonradioactive DHA. Results are expressed as the concentrations of the compound required to displace 50% radioactive ligand from binding of beta adrenergic receptors (K-50).
In these tests, beta adrenergic receptor membranes are incubated with radioactive dihydroalprenolol (H3 DHA) and experimental compounds. The bound radio-ligand is separated by filtration on glass fiber filters and counted by scintillation counter.
Radioactive ligand, H3 dihydroalprenolol (DHA) and aquasol are purchased from New England Nuclear Corporation, DMSO is supplied by J. T. Baker Company, and all other chemicals are obtained from Sigma Chemical Company.
Beta-1 adrenergic receptor membranes are isolated from turkey and rat erythrocytes respectively using the procedures of:
Freshly drawn heparinized whole blood from turkeys and rats is centrifuged for five minutes (4×500 g). The plasma is withdrawn; the remaining erythrocytes are suspended in 150 mM sodium chloride solutions and centrifuged. The cells are resuspended and centrifuged twice more. The cells are hemolyzed in 10 volume of cold distilled water containing 2 mM dithiothreitol, 100 μM phenylmethyl sulfonyl fluoride, 5 μg/mL leupeptin, 200 μg/mL bacitacin, 0.1% bovine serum albumin, and 10 units/mL aprotonin, and centrifuged at 3000×g for five minutes. The bottom gelatin layer is discarded. The top layer is suspended and centrifuged five times at 3000×g and resuspended in tris buffer (145 mM NaCl, 1 mM ethylene glycol-bis(β-aminoethyl ether) N,N,N,N, tetraacetic acid, 2 mM MgCl2, 10 mM tris, and 10% glycerol, pH 7.4). The resuspended membranes are further purified with differential centrifugation by using sucrose albumin cushion, and subsequently stored in small aliquots at -70° C. The protein concentration of receptor membranes is determined by the biuret method.
To duplicate incubation, tubes are added 200 μl suspended membranes (200 μg protein), 25 μl of compound in solution or buffer and 25 μl (H3) dihydroalprenolol (200,000 CPM). Tubes were incubated at room temperature (23° C.) for an hour and then filtered rapidly under vacuum through Whatman GF/B filters. The filters are rinsed three times with 5 mL of cold buffer (145 mM NaCl, 1 mM ethylenediaminetetraacetic acid, and 10 mM tris, pH 7.4) and subsequently counted by liquid scintillation counter in 10 mL of aquasol. Specific binding of H3 DHA is defined as the excess over blank containing 100 μM nonradioactive DHA. Six serial dilutions of each compound are tested.
Beta adrenergic activity is inversely related to K-50 (the concentrations of the compound required to displace 50% radioactive ligand from binding sites of beta adrenergic receptors, i.e., 50% binding) value.

Row | Structure (SMILES) | bronchodilator activity [1] | heart stimulant activity [1] | IC50 [2] [µM]
1 | CC(C)(C)NCC(O)c1cc(Cl)c(N)c(Cl)c1 (stereo not shown) [Clenbuterol] | very effective bronchodilator | potent heart | –
2 | CCCC(C)NCC(O)c1cc(F)cc(C#N)c1 (stereo not shown) [drawing 19] | – | – | 2.2
3 | CC(C)N(CC(O)c1cc(F)cc(C#N)c1)C(C)C (stereo not shown) [drawing 20] | – | – | 2.95
4 | CCNCC(O)c1cc(F)cc(C#N)c1 (stereo not shown) [drawing 21] | – | – | 3.04
5 | CC(C)NCC(O)c1cc(F)cc(C#N)c1 (stereo not shown) [drawing 22] | – | – | 12.3
6 | CC(C)(C)NCC(O)c1cc(F)cc(C#N)c1 (stereo not shown) [drawing 23] | – | – | 16.6
